Reference: publication PMC9858427, “Design, synthesis and biological evaluation of 2-((4-sulfamoylphenyl)amino)-pyrrolo[2,3-d]pyrimidine derivatives as CDK inhibitors” (Journal of Enzyme Inhibition and Medicinal Chemistry, 2023)
Blank lines part the entries; values can stand above or below the molecule they belong to.

What was measured:
MIA PaCa-2 cells [1] = assay: MTT proliferation assay in MIA PaCa-2 cells; format: cell-based, human; conditions: Homo sapiens, MIA PaCa-2, 72 h, 72 h drug exposure
Experimental: (§1) The human pancreatic carcinoma MIA PaCa-2 was purchased from China Centre for Type Culture Collection, AsPC-1 and BxPC-3 cell Lines were purchased from Cell Centre of the Institute of Basic Medical Sciences, Chinese Academy of Medical Sciences and Peking Union Medical College. PANC-1 was kindly provided by Nankai Hospital (Tianjin, China). These cancer cell lines were cultured according to the manufacturer’s instruction.
(§2) Then 3-fold diluted concentrations of tested compound were added respectively which was dissolved by DMSO in the ratio of 1:1000. After indicated incubation period, MTT was added to each well and incubated for 4 h at 37 °C. Then, the supernatant was discarded gently, and the precipitate was dissolved in 100 µL of DMSO in each well. The absorbance (A) at 570 nm was detected with a microplate reader (Multiskan MK3; Thermo Fisher Scientific, MA, USA). Vehicle-treated cells were served as the control for the calculation of relative cell viability (%) of treated group at single concentration. IC50 value was calculated directly from the inhibition curve of serial dilution of test compound and was expressed as mean ± SD using the SPSS statistical software (SPSS17.0 Inc., Chicago, IL, USA).

AsPC-1 = assay: MTT proliferation assay in AsPC-1 cells; format: cell-based; conditions: Homo sapiens, ASPC1; 72 h drug exposure
Experimental: as §1
as §2, with “Cells were planted in 96-well plates at a density of 3000–4000 cells per well and incubated at 37 °C in a humidified CO2 incubator for 24 h. Then 3-fold” for “Then 3-fold”

BxPC-3 = assay: MTT proliferation assay in BxPC-3 cells; format: cell-based; conditions: Homo sapiens, 72 h drug exposure
Experimental: as §1
as §2, with “Cells were planted in 96-well plates at a density of 3000–4000 cells per well and incubated at 37 °C in a humidified CO2 incubator for 24 h. Then 3-fold” for “Then 3-fold”

PANC-1 = assay: MTT proliferation assay in PANC-1 cells; format: cell-based; conditions: Homo sapiens, 72 h drug exposure
Experimental: as §1
as §2, with “Cells were planted in 96-well plates at a density of 3000–4000 cells per well and incubated at 37 °C in a humidified CO2 incubator for 24 h. Then 3-fold” for “Then 3-fold”

[2] = system: AsPC-1 cell-derived xenograft; assay: AsPC-1 cell-derived xenograft mice model, in vivo efficacy; design: species or system BALB/C nude mice; conditions: GCTB 50 mg/kg intraperitoneal once a week, 3 weeks; vs vehicle group
Experimental: Synthetic compound was administered as a suspension or solution in the saline with 5% DMSO and 5% Solutol. GCTB was dissolved in saline. All of the experiments were approved by the Institutional Animal Care and Use Committee of Institute of Medicinal Biotechnology. All experiments were carried out under ethics committee–approved protocols and in compliance with the guidelines for the care of laboratory animals of Institute of Medicinal Biotechnology, CAMS.
AsPC-1 (5 × 10^7) cells were injected subcutaneously into 5-week-old female BALB/C nude mice (Beijing Huafukang Bioscience CO. Inc, Beijing, China). After two weeks, mice were omogenizamised and treated with vehicle, gemcitabine (GCTB), or test compound. Blank solvent and test compound was administered by oral gavage (10 ml/kg) with once daily of five days and followed by 2 days off in each week, GCTB was given once a week by 50 mg/kg intraperitoneal injection. Mice were inspected daily for clinical signs, both tumour diameters and body weight were determined 3 times weekly. Tumour volumes were calculated according to the formula “tumor volume (V) = length × width^2/2”. Median TGI values were calculated as follows: TGI = 100 × [1-(Vtreated group at day20-Vtreated group at day1)/(Vvehicle group at day20-Vvehicle group at day1)]. Data were plotted as average with SD in the graphical representation of tumour growth. The p values obtained from the two-way ANOVA analysis. Meanwhile, main organs of mice were collected, formalin-fixed and paraffin-embedded for pathological analysis by H&E dyeing. For drug concentration determination, blood and tumour tissues were collected at indicated time after single administration. Standard curve of test compound was established in the acquisition mode of SIM using a SHIMADZU LC-MS instrument. […] After centrifugation at 10 × 10^3 for 5 min, the supernatant was injected directedly into LC-MS instrument for quantification of drug concentration. […] After centrifugation under same condition as plasma samples, supernatant was separated and injected into LC-MS for quantification.

[3] = Body weight and H&E pathology of main organs in xenograft mice; format: in vivo, BALB/C nude mice; conditions: after 3-week treatment
Experimental: AsPC-1 (5 × 10^7) cells were injected subcutaneously into 5-week-old female BALB/C nude mice (Beijing Huafukang Bioscience CO. Inc, Beijing, China). After two weeks, mice were omogenizamised and treated with vehicle, gemcitabine (GCTB), or test compound. Blank solvent and test compound was administered by oral gavage (10 ml/kg) with once daily of five days and followed by 2 days off in each week, GCTB was given once a week by 50 mg/kg intraperitoneal injection. Mice were inspected daily for clinical signs, both tumour diameters and body weight were determined 3 times weekly. Tumour volumes were calculated according to the formula “tumor volume (V) = length × width^2/2”. Median TGI values were calculated as follows: TGI = 100 × [1-(Vtreated group at day20-Vtreated group at day1)/(Vvehicle group at day20-Vvehicle group at day1)]. Data were plotted as average with SD in the graphical representation of tumour growth. The p values obtained from the two-way ANOVA analysis. Meanwhile, main organs of mice were collected, formalin-fixed and paraffin-embedded for pathological analysis by H&E dyeing. For drug concentration determination, blood and tumour tissues were collected at indicated time after single administration. Standard curve of test compound was established in the acquisition mode of SIM using a SHIMADZU LC-MS instrument. Blood kept in anticoagulant tube coated with heparin sodium was centrifuged to provide the supernatant, which was followed by added with 3-fold acetonitrile to precipitate plasma protein. After centrifugation at 10 × 10^3 for 5 min, the supernatant was injected directedly into LC-MS instrument for quantification of drug concentration. As for tumour tissues, omogenizationation (Precellys Evolution) was done after weighed accurately and added with 3-fold saline. After centrifugation under same condition as plasma samples, supernatant was separated and injected into LC-MS for quantification.

CDK9/cyclinT1 = CDK9/cyclinT1 (Homo sapiens, UniProt P50750); assay: CDK9/cyclinT1 Lance Ultra Assay, single concentration screen; format: biochemical; conditions: 50 nM, ATP concentration at Km, read-out: CDK9 inhibitory rate (%) @ 50nM
Chain of CDK9/cyclinT1 (P50750 whole entry): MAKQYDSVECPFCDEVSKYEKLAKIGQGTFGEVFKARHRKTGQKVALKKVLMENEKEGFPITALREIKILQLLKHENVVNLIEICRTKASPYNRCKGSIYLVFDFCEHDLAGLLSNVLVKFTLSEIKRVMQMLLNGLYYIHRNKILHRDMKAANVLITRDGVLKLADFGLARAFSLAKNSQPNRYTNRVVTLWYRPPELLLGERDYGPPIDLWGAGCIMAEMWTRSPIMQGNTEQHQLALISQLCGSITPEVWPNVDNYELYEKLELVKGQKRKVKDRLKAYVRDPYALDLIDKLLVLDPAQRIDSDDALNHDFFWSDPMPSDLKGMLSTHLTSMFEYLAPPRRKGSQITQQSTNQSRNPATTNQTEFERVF
Chain of CDK9/cyclinT1 (O60563 whole entry partner): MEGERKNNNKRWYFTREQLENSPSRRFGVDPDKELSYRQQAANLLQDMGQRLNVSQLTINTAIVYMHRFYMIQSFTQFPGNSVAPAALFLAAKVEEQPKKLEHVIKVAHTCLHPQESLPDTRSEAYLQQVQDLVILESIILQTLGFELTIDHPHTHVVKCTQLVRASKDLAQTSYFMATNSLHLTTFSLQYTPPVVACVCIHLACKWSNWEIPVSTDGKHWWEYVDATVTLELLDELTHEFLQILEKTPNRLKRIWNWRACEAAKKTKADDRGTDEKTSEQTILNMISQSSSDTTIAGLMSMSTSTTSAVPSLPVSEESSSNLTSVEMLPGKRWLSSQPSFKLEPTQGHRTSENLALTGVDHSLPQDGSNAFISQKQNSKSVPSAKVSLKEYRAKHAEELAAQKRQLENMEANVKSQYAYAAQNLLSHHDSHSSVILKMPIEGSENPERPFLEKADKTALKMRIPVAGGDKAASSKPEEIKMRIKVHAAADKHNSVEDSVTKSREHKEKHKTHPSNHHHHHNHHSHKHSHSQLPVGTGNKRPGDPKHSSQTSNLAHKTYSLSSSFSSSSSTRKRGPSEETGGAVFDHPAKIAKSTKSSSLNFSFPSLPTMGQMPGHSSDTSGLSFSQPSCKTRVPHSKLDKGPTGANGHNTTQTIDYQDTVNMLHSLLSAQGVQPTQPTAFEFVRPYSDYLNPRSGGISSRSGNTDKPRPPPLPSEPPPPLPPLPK
Experimental: (§3) CDK kinase activity (IC50 values and inhibitory rate at single concentration) was measured using the kinase profiling services (Shanghai ChemPartner Co., Ltd). Compounds were sent to ChemPartner as a solution in DMSO at concentration of 10 mM.

CDK1 [4] = molecular target: T1, CDK1 (Homo sapiens, UniProt P06493); assay: CDK1 kinase IC50, Mobility shift assay; format: biochemical
T1 sequence (P06493 whole entry): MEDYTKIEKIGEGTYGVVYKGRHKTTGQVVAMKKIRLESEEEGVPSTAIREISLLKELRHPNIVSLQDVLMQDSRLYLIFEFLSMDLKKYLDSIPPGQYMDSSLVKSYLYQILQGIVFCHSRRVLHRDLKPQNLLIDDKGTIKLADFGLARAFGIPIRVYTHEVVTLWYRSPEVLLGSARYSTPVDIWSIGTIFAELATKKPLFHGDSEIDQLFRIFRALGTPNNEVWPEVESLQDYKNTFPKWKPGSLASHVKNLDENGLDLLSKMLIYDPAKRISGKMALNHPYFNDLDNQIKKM
T1 sequence (P14635 whole entry partner): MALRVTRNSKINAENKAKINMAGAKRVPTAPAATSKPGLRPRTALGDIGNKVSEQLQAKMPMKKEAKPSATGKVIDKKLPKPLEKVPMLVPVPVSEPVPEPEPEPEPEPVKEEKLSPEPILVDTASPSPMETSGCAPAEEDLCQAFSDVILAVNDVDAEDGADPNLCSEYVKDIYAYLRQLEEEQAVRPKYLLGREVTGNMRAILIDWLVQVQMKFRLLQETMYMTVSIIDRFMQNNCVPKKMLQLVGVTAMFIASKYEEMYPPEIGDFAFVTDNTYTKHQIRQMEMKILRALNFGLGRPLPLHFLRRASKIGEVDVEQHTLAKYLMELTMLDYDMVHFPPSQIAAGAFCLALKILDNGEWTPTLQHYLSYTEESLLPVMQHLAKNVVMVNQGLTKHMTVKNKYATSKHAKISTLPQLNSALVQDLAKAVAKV
Experimental: as §3

CDK2 [5] = molecular target: T2, CDK2 (Homo sapiens, UniProt P24941); assay: CDK2 kinase IC50, Mobility shift assay; format: biochemical
Experimental: as §3

CDK4 [6] = molecular target: T3, CDK4 (Homo sapiens, UniProt P11802); assay: CDK4 kinase IC50, Mobility shift assay; format: biochemical
T3 sequence (P11802 whole entry): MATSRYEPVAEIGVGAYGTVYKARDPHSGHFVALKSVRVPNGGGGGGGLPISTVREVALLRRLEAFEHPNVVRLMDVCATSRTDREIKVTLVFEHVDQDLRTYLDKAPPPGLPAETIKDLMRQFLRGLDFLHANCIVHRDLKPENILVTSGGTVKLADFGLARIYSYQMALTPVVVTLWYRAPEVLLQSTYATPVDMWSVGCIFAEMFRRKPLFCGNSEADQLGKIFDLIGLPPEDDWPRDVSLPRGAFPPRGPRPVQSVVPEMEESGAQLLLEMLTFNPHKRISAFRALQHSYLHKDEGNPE
T3 sequence (P30281 whole entry partner): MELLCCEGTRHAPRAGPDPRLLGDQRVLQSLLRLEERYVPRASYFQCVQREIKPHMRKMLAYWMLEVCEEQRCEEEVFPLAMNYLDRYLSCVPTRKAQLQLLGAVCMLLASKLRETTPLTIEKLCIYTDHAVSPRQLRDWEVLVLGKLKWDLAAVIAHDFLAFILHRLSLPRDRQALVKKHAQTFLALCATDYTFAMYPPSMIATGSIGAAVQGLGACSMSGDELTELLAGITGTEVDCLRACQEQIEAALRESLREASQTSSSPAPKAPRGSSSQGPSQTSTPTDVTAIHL
Experimental: as §3

CDK7 [7] = molecular target: T4, CDK7 (Homo sapiens, UniProt P50613); assay: CDK7 kinase IC50, Mobility shift assay; format: biochemical
T4 sequence (P50613 whole entry): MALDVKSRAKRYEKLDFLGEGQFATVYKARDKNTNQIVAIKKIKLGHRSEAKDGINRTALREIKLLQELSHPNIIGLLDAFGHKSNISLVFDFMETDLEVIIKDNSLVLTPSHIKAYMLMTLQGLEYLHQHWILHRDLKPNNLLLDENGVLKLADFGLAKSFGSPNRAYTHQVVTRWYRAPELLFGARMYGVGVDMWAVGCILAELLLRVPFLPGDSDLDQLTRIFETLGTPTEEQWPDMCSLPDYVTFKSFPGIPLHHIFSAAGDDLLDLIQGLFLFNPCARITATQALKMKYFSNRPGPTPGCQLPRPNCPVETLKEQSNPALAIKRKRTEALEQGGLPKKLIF
T4 sequence (P51946 whole entry partner): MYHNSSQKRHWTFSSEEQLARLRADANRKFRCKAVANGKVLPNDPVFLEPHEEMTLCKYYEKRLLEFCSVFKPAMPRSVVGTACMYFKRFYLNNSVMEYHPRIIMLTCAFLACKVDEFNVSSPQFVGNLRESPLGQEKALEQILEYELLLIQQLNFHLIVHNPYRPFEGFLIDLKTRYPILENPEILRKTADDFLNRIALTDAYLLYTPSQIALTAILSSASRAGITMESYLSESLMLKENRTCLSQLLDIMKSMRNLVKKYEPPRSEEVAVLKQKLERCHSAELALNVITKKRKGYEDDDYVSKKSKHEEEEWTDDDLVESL
T4 sequence (P51948 whole entry partner): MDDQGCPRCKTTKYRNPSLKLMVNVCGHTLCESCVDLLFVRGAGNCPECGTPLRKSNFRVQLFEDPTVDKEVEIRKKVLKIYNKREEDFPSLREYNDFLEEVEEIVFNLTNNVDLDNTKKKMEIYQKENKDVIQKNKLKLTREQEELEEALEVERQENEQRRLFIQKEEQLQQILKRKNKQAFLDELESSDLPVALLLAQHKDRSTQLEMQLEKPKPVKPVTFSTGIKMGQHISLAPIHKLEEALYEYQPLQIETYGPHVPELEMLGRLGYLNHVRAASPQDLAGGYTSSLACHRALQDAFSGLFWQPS
Experimental: as §3

CDK9 [8] = molecular target: T5, CDK9 (Homo sapiens, UniProt P50750); assay: CDK9 kinase IC50, Mobility shift assay; format: biochemical
T5 sequence (P50750 whole entry): as the sequence (P50750 whole entry) above
T5 sequence (O60563 whole entry partner): as the sequence (O60563 whole entry partner) above
Experimental: as §3

CDK1 [9] = molecular target: T1, CDK1; assay: CDK kinase screening at 1 μM, CDK1; format: biochemical; conditions: read-out: Inhibitory rate at 1μM: CDK1
Experimental: as §3

CDK2 [10] = molecular target: T2, CDK2; assay: CDK kinase screening at 1 μM, CDK2; format: biochemical; conditions: read-out: Inhibitory rate at 1μM: CDK2
Experimental: as §3

CDK3 = CDK3 (Homo sapiens, UniProt Q00526); assay: CDK kinase screening at 1 μM, CDK3; format: biochemical; conditions: read-out: Inhibitory rate at 1μM: CDK3
Experimental: as §3

CDK4 [11] = molecular target: T3, CDK4; assay: CDK kinase screening at 1 μM, CDK4; format: biochemical; conditions: read-out: Inhibitory rate at 1μM: CDK4
Experimental: as §3

CDK5 = CDK5 (Homo sapiens, UniProt Q00535); assay: CDK kinase screening at 1 μM, CDK5; format: biochemical; conditions: read-out: Inhibitory rate at 1μM: CDK5
Chain of CDK5 (Q00535 whole entry): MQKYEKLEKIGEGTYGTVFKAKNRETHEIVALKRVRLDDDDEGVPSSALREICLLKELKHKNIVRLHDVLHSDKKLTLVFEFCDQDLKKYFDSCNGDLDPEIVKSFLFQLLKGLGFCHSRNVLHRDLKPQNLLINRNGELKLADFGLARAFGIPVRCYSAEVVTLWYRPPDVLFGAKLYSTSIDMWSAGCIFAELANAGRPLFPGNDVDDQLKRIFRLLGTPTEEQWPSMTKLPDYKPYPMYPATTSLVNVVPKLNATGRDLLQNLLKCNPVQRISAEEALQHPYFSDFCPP
Chain of CDK5 (Q15078 99-307 partner limits assumed): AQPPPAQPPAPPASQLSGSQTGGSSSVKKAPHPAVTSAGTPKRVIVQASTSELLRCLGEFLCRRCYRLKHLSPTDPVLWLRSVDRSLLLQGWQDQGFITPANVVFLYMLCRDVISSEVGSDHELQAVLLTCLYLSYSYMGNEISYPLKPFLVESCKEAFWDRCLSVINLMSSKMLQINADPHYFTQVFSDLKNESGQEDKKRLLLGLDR
Experimental: as §3

CDK6 = CDK6 (Homo sapiens, UniProt Q00534); assay: CDK kinase screening at 1 μM, CDK6; format: biochemical; conditions: read-out: Inhibitory rate at 1μM: CDK6
Chain of CDK6 (Q00534 whole entry): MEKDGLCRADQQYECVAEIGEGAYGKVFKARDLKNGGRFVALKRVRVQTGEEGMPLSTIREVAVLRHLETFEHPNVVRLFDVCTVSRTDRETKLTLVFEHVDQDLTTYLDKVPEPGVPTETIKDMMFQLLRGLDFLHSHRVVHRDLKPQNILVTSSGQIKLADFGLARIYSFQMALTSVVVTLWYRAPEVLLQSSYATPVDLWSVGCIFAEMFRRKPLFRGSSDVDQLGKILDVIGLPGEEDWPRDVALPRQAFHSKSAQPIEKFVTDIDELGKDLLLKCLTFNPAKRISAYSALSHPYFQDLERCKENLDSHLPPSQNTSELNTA
Chain of CDK6 (P30281 whole entry partner): as the sequence (P30281 whole entry partner) above
Experimental: as §3

CDK7 [12] = molecular target: T4, CDK7; assay: CDK kinase screening at 1 μM, CDK7; format: biochemical; conditions: read-out: Inhibitory rate at 1μM: CDK7
Experimental: as §3

CDK8 = CDK8 (Homo sapiens, UniProt P49336); assay: CDK kinase screening at 1 μM, CDK8; format: biochemical; conditions: read-out: Inhibitory rate at 1μM: CDK8
Experimental: as §3

CDK9 [13] = molecular target: T5, CDK9; assay: CDK kinase screening at 1 μM, CDK9; format: biochemical; conditions: read-out: Inhibitory rate at 1μM: CDK9
Experimental: as §3

MIA PaCa-2 cells [14] = system: MIA PaCa-2 cells; design: method as in PMID 33316409; conditions: previous study ref 23; cited from earlier work

IC50 (MIA PaCa-2 cells [1]): 1.04 ± 0.27 µM
IC50 (AsPC-1): 0.956 ± 0.14 µM
IC50 (BxPC-3): 0.388 ± 0.119 µM
IC50 (PANC-1): 5.79 ± 4.21 µM
Compound: Nc1ccn([C@@H]2O[C@H](CO)[C@@H](O)C2(F)F)c(=O)n1 [GCTB, gemcitabine, reference compound]
tumour growth inhibition (TGI) [2]: 36%
pathological change in main organs (H&E) [3]: no obvious pathological change

IC50 (MIA PaCa-2 cells [1]): 4.98 ± 2.68 µM
IC50 (AsPC-1): 2.6 ± 0.997 µM
IC50 (BxPC-3): 0.409 ± 0.06 µM
IC50 (PANC-1): 3.68 ± 2.5 µM
inhibition at 0.05 µM (CDK9/cyclinT1): 98.6%
IC50 (CDK1 [4]): 516 nM
IC50 (CDK2 [5]): 91.6 nM
IC50 (CDK4 [6]): 89 nM
IC50 (CDK7 [7]): > 10000 nM
IC50 (CDK9 [8]): 5.6 nM
inhibition at 1 µM (CDK1 [9]): 65.2%
inhibition at 1 µM (CDK2 [10]): 94.4%
inhibition at 1 µM (CDK3): 84.5%
inhibition at 1 µM (CDK4 [11]): 89.2%
inhibition at 1 µM (CDK5): 72.1%
inhibition at 1 µM (CDK6): 78.1%
inhibition at 1 µM (CDK7 [12]): 5.3%
inhibition at 1 µM (CDK8): 0.8%
inhibition at 1 µM (CDK9 [13]): 99%
Compound: Cc1cc(C)nc(NS(=O)(=O)c2ccc(Nc3ncc4cc(C(=O)N(C)C)n(C5CCCC5)c4n3)cc2)n1 [compound 1]
effect on cell cycle (MIA PaCa-2 cells [14]): G2-arrested effect
